pIC50: −log10 of the molar value.
Tests used:
[1] = system: trimers (SEQ ID NO:36) and labeled HR2 peptide (SEQ ID NO:33); test: Fluorescence polarization assay of inhibition of complexing between trimers and labeled HR2 peptide; type: binding, HIV-1; details: read-out: Concentration to inhibit complexing between the trimers and labeled HR2 peptide by 50% (IC50); fluorescein-labeled HR2 peptide 0.2 nM; trimers SEQ ID NO:36 50 nM
Description: In an example of a homogenous assay carried out as a liquid phase-based assay system, a fluorescence polarization assay was used in taking advantage of the high affinity interaction between HR1 and HR2 regions. Into reaction wells of a high throughput plate (>300 reaction wells) was added 20 μl of a solution containing a desired concentration of molecule to be assessed for its ability to bind to trimers employed with the present invention (e.g., formed from synthetic peptide) and either inhibit or disrupt HR1-HR2 binding interactions (“complexing between HR1 and HR2″). […] To each reaction well was then added 10 μl of a solution containing a desired concentration of trimers (formed from synthetic peptide employed with the present invention). […] Fluorescence intensity of polarized light was then measured with a detection system comprising a spectrophotometer, and the amount of polarized light was calculated using standard software in the art. In this example of the method according to the present invention, molecules assessed for ability to inhibit or disrupt complexing between trimers and a labeled HR2 peptide (e.g., SEQ ID NO:33) comprised either of two HR2 peptides.

HIV-1 = details: in vitro infectivity assay
Description: These assays score for reduction of infectious virus titer employing the indicator cell lines MAGI or the CCR5 expressing derivative cMAGI. Both cell lines exploit the ability of HIV-1 tat to transactivate the expression of a β-galactosidase reporter gene driven by the HIV-LTR. The β-gal reporter has been modified to localize in the nucleus and can be detected with the X-gal substrate as intense nuclear staining within a few days of infection. The number of stained nuclei can thus be interpreted as equal to the number of infectious virions in the challenge inoculum if there is only one round of infection prior to staining. […] The cells were cultured for 2 more days, and then fixed and stained with the X-gal substrate to detect HIV-infected cells. The number of infected cells for each control and peptide dilution was determined with the CCD-imager, and then the IC50 and IC90 were calculated (expressed in μg/ml).

With “HR2 peptide A: HR2 peptide, derived from the HR2 region of HIV-1 gp41; also used labeled as binding partner (WMEWDREINNYTSLIHSLIEESQNQQEKNEQELLEL)” the pIC50 [1] was 7.17, the “Antiviral activity against HIV-1 IC50” value (HIV-1) was 0.002 µg/mL and the “Antiviral activity against HIV-1 IC90” value (HIV-1) was 0.072 µg/mL.
